For three compounds, IC50 results are on record in BindingDB's records for doi:10.1016/j.bmcl.2013.01.049 (Dongguk University-Seoul, 2013).

In this assay the target is T1, Receptor-type tyrosine-protein kinase FLT3 (Homo sapiens, UniProt P36888).
T1 sequence (P36888 whole entry): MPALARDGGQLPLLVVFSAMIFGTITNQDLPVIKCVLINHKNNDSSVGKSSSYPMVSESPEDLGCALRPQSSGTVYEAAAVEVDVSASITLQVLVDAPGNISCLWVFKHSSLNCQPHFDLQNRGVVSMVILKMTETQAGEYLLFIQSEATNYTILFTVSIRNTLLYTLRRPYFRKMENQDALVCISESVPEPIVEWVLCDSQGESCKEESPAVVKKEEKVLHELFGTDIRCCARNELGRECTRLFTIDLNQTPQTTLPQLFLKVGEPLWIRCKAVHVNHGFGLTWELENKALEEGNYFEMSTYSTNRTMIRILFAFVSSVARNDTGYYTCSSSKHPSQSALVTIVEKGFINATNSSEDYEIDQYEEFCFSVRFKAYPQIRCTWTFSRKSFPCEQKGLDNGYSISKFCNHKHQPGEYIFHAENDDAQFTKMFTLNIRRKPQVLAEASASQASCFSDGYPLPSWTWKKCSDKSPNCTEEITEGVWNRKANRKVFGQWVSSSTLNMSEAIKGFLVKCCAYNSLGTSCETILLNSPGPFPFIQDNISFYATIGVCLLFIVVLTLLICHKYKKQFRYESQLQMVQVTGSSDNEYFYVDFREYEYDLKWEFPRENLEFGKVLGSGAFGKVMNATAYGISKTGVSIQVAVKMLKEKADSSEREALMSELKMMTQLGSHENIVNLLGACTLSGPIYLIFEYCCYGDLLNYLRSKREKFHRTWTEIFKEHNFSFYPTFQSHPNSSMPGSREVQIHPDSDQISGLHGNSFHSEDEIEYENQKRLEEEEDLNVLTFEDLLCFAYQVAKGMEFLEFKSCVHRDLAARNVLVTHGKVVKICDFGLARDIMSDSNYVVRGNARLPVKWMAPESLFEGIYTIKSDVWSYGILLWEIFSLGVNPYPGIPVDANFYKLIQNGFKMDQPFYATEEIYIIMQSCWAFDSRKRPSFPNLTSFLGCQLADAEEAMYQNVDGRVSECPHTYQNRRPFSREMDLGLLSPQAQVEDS
As to the kind of experiment: Inhibition of recombinant FLT3 (unknown origin) by TR-FRET assay.

Molecules are shown by their SMILES.

Turning to `O=c1cc(O)cc2oc(-c3ccc(O)c(O)c3)c(OC3O[C@H](CO)[C@@H](O)[C@H](O)[C@@H]3O)c(O)c1-2` (stereo partly drawn), the IC50 is over 10 µM.
Take `O=c1cc(O)cc2oc(-c3ccc(O)c(O)c3)c(O[C@@H]3O[C@H](CO)[C@H](O)[C@H](O)[C@H]3O)c(O)c1-2` [2-(3,4-Dihydroxy-phenyl)-5,7-dihydroxy-3-((2S,4R,5R)-3,4,5-trihydroxy-6-hydroxymethyl-tetrahydro-pyran-2-yloxy)-chromen-4-one]: the IC50 was over 10 µM.
Next, `O=c1cc(O)cc2oc(-c3ccc(O)c(O)c3)c(O[C@@H]3O[C@H](CO)[C@@H](O)[C@H](O)[C@H]3O)c(O)c1-2` [Quercetin 3-O-beta-D-glucoside]: over 10 µM.
